Activity calls are given as the source filed them.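 Rule for the calls: active = inhibition above 30%; inactive = inhibition at or below 30%.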
Molecular target: Sphingosine 1-phosphate receptor 1 (Homo sapiens) (UniProt P21453)
Test: S1P1 receptor antagonists, human, confirmation, counter-screen for OPRK1 antagonist project, cell-based, fluorescence (AID 652087)
Details: Tango EDG-1-bla U2OS, beta-lactamase FRET, S1P antagonism; at 9 µM; hits give high values

Chain of Sphingosine 1-phosphate receptor 1 (Homo sapiens) (P21453 whole entry, looked up): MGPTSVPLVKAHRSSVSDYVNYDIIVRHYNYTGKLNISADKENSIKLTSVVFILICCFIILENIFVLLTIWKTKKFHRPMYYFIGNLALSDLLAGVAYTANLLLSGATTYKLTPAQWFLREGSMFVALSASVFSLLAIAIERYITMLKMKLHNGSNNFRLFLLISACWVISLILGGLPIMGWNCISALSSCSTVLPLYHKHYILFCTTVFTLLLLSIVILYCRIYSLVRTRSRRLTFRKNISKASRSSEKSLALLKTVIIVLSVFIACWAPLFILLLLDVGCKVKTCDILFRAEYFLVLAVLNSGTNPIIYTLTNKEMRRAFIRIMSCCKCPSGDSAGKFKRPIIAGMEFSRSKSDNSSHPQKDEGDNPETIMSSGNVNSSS

| Compound | inhibition |
| --- | --- |
| COc1cccc(C(=O)c2sc3nsc(SCc4ccc(F)cc4)c3c2N)c1 | -12.7% (inactive) |
| O=[N+]([O-])c1ccc(N/N=C/c2ccc(-c3cccs3)s2)nc1 | 79.4% |
| CCOC(=O)[C@@H](N)CCSC | -3.49% (inactive) |
| COc1cccc(/C=C(\C#N)c2ccc([N+](=O)[O-])cc2)c1OC | 52.1% |
| CSc1sc(C(=O)NC(=O)Nc2ccc(Cl)cc2)c2c1-c1nocc1CC2 | 18.7% (inactive) |
| CSc1ccc(/C=C/c2onc(C)c2[N+](=O)[O-])s1 | 10.1% (inactive) |
| Nc1c(C(=O)c2ccccc2)sc2nsc(SCCN3CCCC3)c12 | 27.5% (inactive) |
| CCOC(=O)c1cn[nH]c1NC(=S)Nc1cccc(C(F)(F)F)c1 | 71.7% |
| C=CCNC(=S)NNC(=O)c1oc2nc(-c3ccc(Cl)cc3)cc(-c3ccccc3)c2c1N | 8.18% (inactive) |
| O=c1c2cc(-c3ccccc3)sc2nnn1/N=C/c1cccs1 | 15.2% (inactive) |
| Clc1ccc2c(Nc3ccc4c(c3)OCO4)ccnc2c1 | -9.65% (inactive) |
| Cc1ccc(/C=c2\sc3nc4ccccc4n3c2=O)o1 | -0.81% (inactive) |
| CN(C)c1cc(NC(=O)Nc2ccccc2)c2ccccc2n1 | -14.9% (inactive) |
| O=C(Nc1ccc([N+](=O)[O-])cc1)Nc1csc(-c2cccnc2)n1 | 5.35% (inactive) |
| N#Cc1cccc(C#N)c1Oc1ccc(N)cc1 | 15.3% (inactive) |
| NC(=NC(=O)c1cccc(C(F)(F)F)c1)c1ccc(C(F)(F)F)cn1 | 47.1% |
| O=C(O)C(F)(F)C(F)(F)C(=O)NCc1cccc(Cl)c1 | -3.44% (inactive) |
| CS(=O)(=O)/C(C#N)=C\c1ccc(Cl)s1 | -11.8% (inactive) |
| CCN(CC)c1ccc(/C=C/c2ccc([N+](=O)[O-])cc2C#N)cc1 | 55.7% |
| COc1cc([N+](=O)[O-])c(OC)cc1SCc1n[nH]c(=S)n1-c1ccc(C)cc1 | 3.13% (inactive) |

| Compound | inhibition |
| --- | --- |
| CN(C)c1ccc(-n2nnnc2SCc2ccc(Cl)cc2)cc1 | 37.2% |
| COC(=O)/C=C1\SC(=Nc2ccc(Cl)cc2)N(c2ccc(Cl)cc2)C1=O | 42.5% |
| Clc1ccc2nc3c(nc2c1)Nc1ccccc1S3 | 94.9% |
| N#Cc1cccnc1NNC(=O)COCC(=O)O | 86.5% |
| COC(=O)c1cc(-c2ccc(OC)cc2)c(-c2ccc(OC)cc2)s1 | 9.19% (inactive) |
| CCOC(=O)c1cc(C(=O)OC)c(C)nc1N1CCC(NC2CCCCC2O)CC1 (stereo unspecified) | -1.54% (inactive) |
| COc1ccc([N+](=O)[O-])c(S(=O)(=O)c2ccc(Cl)cc2)n1 | 12.7% (inactive) |
| O=[N+]([O-])c1ccc(-c2ccc(/C=N/NC(=S)Nc3cccc(F)c3)o2)cc1 | 67.9% |
| Nc1c(C(=O)N/N=C/c2ccc3c(c2)OCO3)sc2nnc(-c3ccccc3)c(-c3ccccc3)c12 | 65% |
| O=[N+]([O-])c1ccc(N2CCc3ccccc32)cc1 | 36.8% |
| CC1COC(c2cccc([N+](=O)[O-])c2)N1 (stereo unspecified) | 2.16% (inactive) |
| CCOC(=O)C1CCN(Cc2cccc(NC(=O)c3cccs3)c2)CC1 | 15.1% (inactive) |
| COc1ccc(OS(=O)(=O)c2sc(Br)cc2Br)cc1 | 11.6% (inactive) |
| COc1ccccc1NC(=O)NCCN1CCN(Cc2ccccc2)CC1 | 66.8% |
| O=C(c1cnn(-c2ccc(Cl)cc2)c1C(F)(F)F)N1CCN(c2ncnc3ccsc23)CC1 | -19.1% (inactive) |
| COc1ccccc1C1CCN(Cc2ccc3c(c2)CCC(C)(C)O3)CC1 | -5.53% (inactive) |
| CCCCCC[n+]1ccccc1/C=C/c1ccc(N(C)C)cc1 | 99.1% |
| C#Cc1cccc(NC(=O)c2sc3nc4c(c(-c5cccs5)c3c2N)CCCC4)c1 | 46.3% |
| CC(=O)N1CCC(C(=O)O/N=C(\N)c2ccc(Cl)cc2)CC1 | 16.3% (inactive) |

The remaining lines, values ahead:

| inhibition | Compound |
| --- | --- |
| 15.4% (inactive) | CCOC(=O)C1CCN(Cc2cccc(NC(=O)c3ccco3)c2)CC1 |
| 45.1% | COC(=O)c1cnn(-c2ccc(Cl)cc2)c1C=C(C#N)C#N |
| 23.6% (inactive) | O=C(/C=C/c1cc(-c2ccccc2)c(C(F)(F)F)s1)c1cccs1 |
| 93.5% | CCCCNc1ccc2c3c(cccc13)C(=O)N(CCCC)C2=O |
| 4.01% (inactive) | c1ccc(-c2cc3ncnc(NCc4ccc5c(c4)OCO5)c3s2)cc1 |
| 51.2% | CCCCCCCCCCCC(=O)ON1C(=O)CCC1=O |
| -19.8% (inactive) | O=C(NNC(=O)C(F)(F)F)c1ccc[nH]1 |
| 124% | O=[N+]([O-])c1ccc(C2=NN(c3ccccc3)C(c3ccco3)C2)cc1 (stereo unspecified) |
| 51.5% | O=C(Nc1ccc(F)c(Cl)c1)c1cc(Br)ccc1O |
| 92.1% | O=[N+]([O-])c1ccc(-c2ccc(/C=N/Nc3ccccc3)o2)cc1 |
| 76.9% | O=[N+]([O-])c1c(Sc2ccc(Cl)cc2)ccc2nsnc12 |
| -25.2% (inactive) | CCOC(=O)c1ccc(N2CC3CCCCN3C2c2cccc(OC)c2O)cc1 (stereo unspecified) |
| -0.3% (inactive) | CN(C)c1cccc2c1c(NC(=O)Nc1ccc(OCc3ccccc3)cc1)nn2C |
| 45.3% | S=C(NNc1c(Cl)cncc1Cl)Nc1ccc(Cl)cc1Cl |
| -6.28% (inactive) | CC(=O)Nc1onc(C)c1-c1nc(-c2ccc(Cl)cc2Cl)cs1 |
| 2.13% (inactive) | CC(=O)c1sc2nc(-c3cccs3)cc(C(F)(F)F)c2c1N |
| 73.1% | O=C(N/C(=C\c1ccc(-c2ccc([N+](=O)[O-])cc2)o1)c1nc2ccccc2[nH]1)c1ccccc1 |
| 14.5% (inactive) | N#Cc1c(S/C=C(\O)c2cc3ccccc3o2)nc2c(c1C(F)(F)F)CCCC2 |
| 65.4% | Brc1ccc(-c2csc(Nc3ccncc3)n2)cc1 |
| 23.2% (inactive) | O=[N+]([O-])c1ccc(N/N=C2\CCOc3ccc(F)cc32)cc1 |
| 9.9% (inactive) | COC(=O)c1ccc(/C=C2\C(=O)Nc3ccccc32)n1-c1ccc(F)cc1 |
| 63.3% | O=C(Nc1ccc(Cl)cc1Cl)c1cc([N+](=O)[O-])cc2c1-c1ccc([N+](=O)[O-])cc1C2=O |
| 38.5% | Oc1c(Cl)cc(Cl)cc1C1Nc2cc(Cl)c(C(F)(F)F)cc2N1 (stereo unspecified) |
| -6.9% (inactive) | CC(CCC(C)OC(=O)c1ccccc1C(=O)O)OC(=O)c1ccccc1C(=O)O (stereo unspecified) |
| -15.7% (inactive) | O=C1c2ccc(Cl)c3c(N4CCSCC4)ccc(c23)C(=O)N1c1ccccc1 |
| 33.4% | C=CCn1c(-c2sc3nnc(-c4ccccc4)c(-c4ccccc4)c3c2N)n[nH]c1=S |
| 59.2% | Cn1c(=O)c2cc3cc(Cl)ccc3nc2c2c(=O)n(-c3ccccc3)c(=O)n(-c3ccccc3)c21 |

From PubChem BioAssay AID652087 (The Scripps Research Institute Molecular Screening Center, 2013)
